US20040073074A1, “Method of continuous production of polyalkylbiphenyls” (priority 2002, published 2004)

Assay: Confirmation of precipitation of 4,4′-diisopropylbiphenyl crystals on cooling
Type: physicochemical
Conditions: cooled to −10° C.
Description: (Confirmation of Precipitation of 4,4′-diisopropylbiphenyl Crystals)
Solutions each containing 4,4′-diisopropylbiphenyl in ratios of 15% by mass and 30% by mass in diisopropylbiphenyl were respectively prepared in an amount of 50 g. Each solution was cooled to −10° C. […] Therefore, as mentioned above, in the case where the content of diisopropylbiphenyl contained in the solution recovery from the tower top of the distillation tower is 7.6% by mass and this amount is 27.6% by mass of the amount of diisopropylbiphenyl measured at the outlet of the reactor, with the result that the amount of 4,4′-diisopropylbiphenyl in diisopropylbiphenyl as a product is 14.1% by mass, there is no particular problem as to the low-temperature characteristics of the product. However, if the amount of diisopropylbiphenyl contained in the solution recovery from the tower top of the distillation tower becomes increase and the amount of 4,4′-diisopropylbiphenyl in diisopropylbiphenyl as a product becomes increase, the low-temperature characteristics will deteriorate.

In the case of `CC(C)c1ccc(-c2ccc(C(C)C)cc2)cc1` [4,4′-diisopropylbiphenyl], the precipitation of crystals (15% by mass in diisopropylbiphenyl) is reported as “no precipitation of crystals was observed” and the precipitation of crystals (30% by mass in diisopropylbiphenyl) is reported as “a large amount of 4,4′-diisopropylbiphenyl precipitated”.
